Laboratory results taken from the supplement of paper PMC10307832.

Columns and labels:
Assay in all cases: relative viability (nuclei count vs DMSO), 5 days (fraction); higher = more cells survive
[1] = compound: C1COCCN1C2=NC(=NC3=C2OC4=C3C=CC=N4)C5=CC(=CC=C5)NC(=O)C6=CN=C(C=C6)N
In short: (§1)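 Nuclei counted with MetaXpress define viability as the ratio of treated to vehicle wells, given as a median across plates. The lung cancer cell lines were in 1536-well plates, pinned with five √10-spaced library-drug doses and imaged at 4× after 5 days and Hoechst staining. Plates passed with control CV below 25% and at least one doubling.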

SGI-1776 = compound: CN1CCC(CNc2ccc3ncc(-c4cccc(OC(F)(F)F)c4)n3n2)CC1 [SGI-1776]
In short: as §1

Entinostat = compound: Nc1ccccc1NC(=O)c1ccc(CNC(=O)OCc2cccnc2)cc1 [Entinostat]
In short: as §1

SGI-1776 + Crizotinib = compound: CN1CCC(CNc2ccc3ncc(-c4cccc(OC(F)(F)F)c4)n3n2)CC1 [SGI-1776] + C[C@@H](Oc1cc(-c2cnn(C3CCNCC3)c2)cnc1N)c1c(Cl)ccc(F)c1Cl [Crizotinib] (partner 1 µM)
In short: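 The day after seeding in 1536-well plates, lung cancer cell lines were treated by pin tool with a single drug, or with a fixed anchor-drug dose together with five library-drug doses (not always all listed) in √10 steps. After 5 days, a combined fix-and-stain solution (final 0.05% Triton X-100, 1% formaldehyde, 1 ug/ml Hoechst) was added. Nuclei counted on 4× images gave relative viability as treated counts over vehicle counts, reported as the median of duplicate plates.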

| Cell Line | relative viability ([1]; 0.02 µM) | relative viability ([1]; 0.06325 µM) | relative viability ([1]; 0.2 µM) | relative viability ([1]; 0.6325 µM) | relative viability ([1]; 2 µM) | relative viability (SGI-1776; 0.08 µM) | relative viability (SGI-1776; 0.8 µM) | relative viability (SGI-1776; 2.53 µM) | relative viability (SGI-1776; 8 µM) | relative viability (Entinostat; 0.02 µM) | relative viability (Entinostat; 0.06325 µM) | relative viability (Entinostat; 0.2 µM) | relative viability (Entinostat; 0.6325 µM) | relative viability (Entinostat; 2 µM) | relative viability (SGI-1776 + Crizotinib; first compound 0.08 µM) | relative viability (SGI-1776 + Crizotinib; first compound 0.8 µM) | relative viability (SGI-1776 + Crizotinib; first compound 2.53 µM) | relative viability (SGI-1776 + Crizotinib; first compound 8 µM) |
| --- | --- | --- | --- | --- | --- | --- | --- | --- | --- | --- | --- | --- | --- | --- | --- | --- | --- | --- |
| NCI-H23 | 0.937 | 0.843 | 0.869 | 0.854 | 0.654 | 0.921 | 1.01 | 1.06 | 0.887 | 1.06 | 1.27 | 1.15 | 0.9 | 0.395 | 0.747 | 0.368 | 0.383 | 0.256 |
| NCI-H322M | 0.903 | 0.923 | 0.944 | 0.854 | 0.725 | 0.975 | 1.01 | 1.05 | 0.69 | 1.02 | 1.11 | 1.14 | 0.961 | 0.859 | 0.998 | 0.824 | 1.01 | 0.664 |
| NCI-H358 | 0.864 | 1.09 | 0.871 | 0.832 | 0.625 | 0.986 | 0.957 | 0.897 | 0.512 | 1.09 | 1.17 | 0.934 | 0.641 | 0.255 | 0.53 | 0.393 | 0.244 | 0.292 |
| NCI-H441 | 1.1 | 1.14 | 1.08 | 0.888 | 0.443 | 0.913 | 1.12 | 1.15 | 0.817 | 1.01 | 1.18 | 0.882 | 0.35 | 0.218 | 0.701 | 0.54 | 0.731 | 0.61 |
| NCI-H460 | 1.05 | 1.09 | 0.974 | 1.03 | 0.477 | 1.01 | 0.994 | 0.988 | 0.947 | 1.02 | 0.986 | 0.842 | 0.307 | 0.0693 | 0.973 | 0.573 | 0.471 | 0.0428 |
| NCI-H520 | 0.857 | 1.12 | 1.05 | 0.921 | 0.659 | 0.998 | 1.18 | 1 | 0.832 | 1 | 1.07 | 0.934 | 0.9 | 0.792 | 0.773 | 0.828 | 0.728 | 0.473 |
| NCI-H596 | 0.993 | 1.11 | 0.944 | 0.948 | 0.832 | 0.943 | 1.11 | 0.869 | 0.731 | 1.03 | 0.937 | 0.975 | 0.854 | 0.588 | 1.08 | 1.06 | 0.945 | 0.854 |
| NCI-H647 | 0.862 | 1.02 | 0.905 | 0.867 | 0.546 | 0.988 | 1.09 | 0.839 | 0.544 | 1.05 | 1.04 | 0.897 | 0.462 | 0.165 | 1.16 | 0.842 | 0.992 | 0.291 |
| NCI-H650 | 0.958 | 0.875 | 0.918 | 0.952 | 0.849 | 0.935 | 0.955 | 0.997 | 0.677 | 1.15 | 1.02 | 0.939 | 0.941 | 0.308 | 0.764 | 0.704 | 0.382 | 0.37 |
| NCI-H661 | 0.989 | 1.04 | 0.978 | 1 | 0.813 | 1.02 | 1.04 | 1.06 | 0.974 | 1 | 0.999 | 0.911 | 0.809 | 0.664 | 0.932 | 1.02 | 1.03 | 0.964 |
| NCI-H727 | 0.973 | 1.1 | 0.878 | 0.9 | 1.02 | 0.976 | 1.02 | 1.01 | 0.852 | 0.892 | 0.895 | 0.887 | 0.614 | 0.545 | 0.831 | 0.79 | 0.863 | 0.48 |
| NCI-H838 | 0.852 | 0.947 | 0.917 | 0.791 | 0.57 | 0.928 | 0.994 | 0.936 | 0.645 | 1.11 | 1.08 | 1.08 | 0.733 | 0.406 | 0.885 | 0.854 | 0.689 | 0.319 |
| NCI-H1299 | 0.991 | 1.1 | 1.03 | 1.02 | 0.868 | 1.03 | 1.01 | 0.996 | 0.946 | 1.03 | 1 | 0.994 | 0.85 | 0.727 | 0.969 | 0.969 | 0.917 | 0.807 |
| NCI-H1355 | 0.967 | 1.04 | 0.998 | 0.959 | 0.888 | 1.01 | 1.06 | 0.994 | 0.888 | 0.975 | 0.918 | 0.823 | 0.638 | 0.523 | 1.1 | 1.03 | 1.01 | 0.935 |
